# Results: patent publication US9193669B2, “Compounds for treating ophthalmic diseases and disorders” (Acucela Inc., priority 2008, dated 2015)
# Molecular target: T1, isomerase (Mus musculus, UniProt Q91ZQ5)
# T1 construct: The recovery of 11-cis-retinal after bleaching can be used to estimate the activity of isomerase in vivo; from tissue; host or cells: eyes of living mice (CD-1; Balb/c also named)
# T1 sequence (Q91ZQ5 1-533): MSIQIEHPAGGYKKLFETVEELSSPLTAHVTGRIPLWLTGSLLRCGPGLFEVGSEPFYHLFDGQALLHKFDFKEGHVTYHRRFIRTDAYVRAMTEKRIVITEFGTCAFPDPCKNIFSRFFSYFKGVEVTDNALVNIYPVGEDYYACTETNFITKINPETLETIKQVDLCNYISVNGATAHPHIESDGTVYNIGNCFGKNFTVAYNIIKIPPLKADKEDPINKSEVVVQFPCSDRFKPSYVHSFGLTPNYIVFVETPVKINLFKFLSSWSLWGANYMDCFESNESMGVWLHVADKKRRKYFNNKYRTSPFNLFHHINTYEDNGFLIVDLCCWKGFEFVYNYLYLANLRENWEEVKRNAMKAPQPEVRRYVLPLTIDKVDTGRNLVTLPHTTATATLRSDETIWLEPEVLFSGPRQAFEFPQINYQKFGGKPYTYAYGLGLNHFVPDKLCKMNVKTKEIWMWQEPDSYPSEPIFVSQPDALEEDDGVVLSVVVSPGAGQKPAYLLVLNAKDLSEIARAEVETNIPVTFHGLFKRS
# Assay: In vivo murine isomerase assay
# Set-up: species or system mice
# Conditions: mouse, po, 4 h; read-out: % Inibition 1 mg/kg, 4 h
# Method: The capability of compounds described herein to inhibit isomerase was determined by an in vivo murine isomerase assay. Brief exposure of the eye to intense light (“photobleaching” of the visual pigment or simply “bleaching”) is known to photo-isomerize almost all 11-cis-retinal in the retina. The recovery of 11-cis-retinal after bleaching can be used to estimate the activity of isomerase in vivo. Delayed recovery, as represented by lower 11-cis-retinal oxime levels, indicates inhibition of isomerization reaction. Procedures were performed essentially as described by Golczak et al., Proc. Natl. Acad. Sci. […] Mice were gavaged with the compounds described in the present disclosure. After about 2-24 hours in the dark, the mice were exposed to photobleaching of about 5,000 lux of white light for 10 minutes. The mice were allowed to recover for about 2 hours in the dark. The animals were then sacrificed by carbon dioxide inhalation. Retinoids were extracted from the eye and the regeneration of 11-cis-retinal was assessed at various time intervals. […] After the mice were sacrificed, the eyes were immediately removed and placed in liquid nitrogen for storage. The eyes were placed in about 500 μL of bis-tris propane buffer (10 mM, pH˜7.3) and about 20 μl of 0.8M hydroxylamine (pH˜7.3). The eyes were cut up into small pieces with small iris scissors and then thoroughly homogenized at 30000 rpm with a mechanical homogenizer (Polytron PT 1300 D) in the tube until no visible tissue remains. About 500 μL of methanol and about 500 μL of heptane was added to each tube. The tubes were attached to a vortexer so that the contents are mixed thoroughly for about 15 minutes in room temperature. […] The samples were analyzed on an Agilent 1100 HPLC system with normal phase column: SILICA (Beckman Coutlier, dp 5 μm, […]). […] Loading volume for each sample was about 100 μl; detection wavelength is 360 nm. The area under the curve for 11-cis-retinal oxime was calculated by Agilent Chemstation software and recorded manually. Data processing was performed using Prizm software. Positive control mice (no compound administered) were sacrificed fully dark-adapted and the eye retinoids analyzed. Light (bleached) control mice (no compound administered) were sacrificed and retinoids isolated and analyzed immediately after light treatment. A time course study was also performed to determine the isomerase inhibitory activity of compounds of the present disclosure. Female or male mice (such as Balb/c mice) (at least 4/group) received 0 to about 5 mg of compounds (in water) per kg bodyweight orally, by gavage. The animals were then “photo-bleached” (about 5000 Lux white light for about 10 minutes) at about 2, 4, 8, 16 and 24 hours after dosing, and returned to darkness to allow recovery of the 11-cis-retinal content of the eyes. Mice were sacrificed about 2 hours after bleaching, eyes were enucleated, and retinoid content was analyzed by HPLC. A dose response in vivo isomerase inhibition study is performed with compounds of the present disclosure. Male or female mice (such as Balb/c mice)(at least about 8/group) are dosed orally with about 0.01 to 25 mg/kg of the compounds of HCl salts of the compounds in sterile water as solution, and photobleached about 4 hours after dosing. Recovery and retinoid analysis is performed as described above. Dark control mice are vehicle-only treated, sacrificed fully dark adapted without light treatment, and analyzed. […]
row,inhibition in vivo at 1 mg/kg [%],Structure (SMILES)
1,95.3 ± 2.7,"NCCC(O)c1cccc(NCC2CCCCC2)c1 (stereo not drawn) [Example 11, 3-amino-1-(3-(cyclohexylmethylamino)phenyl)propan-1-ol]"
2,9.16 ± 9.41,"NCCC(=O)c1cccc(NCC2CCCCC2)c1 [Example 12, 3-amino-1-(3-(cyclohexylmethylamino)phenyl)propan-1-one]"
3,1.98 ± 6.02,"CCCCCNc1cccc(C(O)CCN)c1 (stereo not drawn) [Example 13, 3-amino-1-(3-(pentylamino)phenyl)propan-1-ol]"
4,8.12 ± 16.2,"CCCCCNc1cccc(C(=O)CCN)c1 [Example 14, 3-amino-1-(3-(pentylamino)phenyl)propan-1-one]"
5,-0.003 ± 19.4,"NCCC(O)c1cccc(NC(=O)C2CCCCC2)c1 (stereo not drawn) [Example 15, N-(3-(3-amino-1-hydroxypropyl)phenyl)cyclohexanecarboxamide]"
6,17.1 ± 5.32,"NCCC(=O)c1cccc(NC(=O)C2CCCCC2)c1 [Example 16, N-(3-(3-aminopropanoyl)phenyl)cyclohexanecarboxamide]"
7,9.52 ± 4.6,"NCCCc1cccc(NCC2CCCC2)c1 [Example 31, 3-(3-aminopropyl)-N-(cyclopentylmethyl)aniline]"
8,4.32 ± 7.88,"CCC(CC)CNc1cccc(CCCN)c1 [Example 33, 3-(3-aminopropyl)-N-(2-ethylbutyl)aniline]"
9,95.2 ± 1.41,"CCC(CC)CNc1cccc(C(O)CCN)c1 (stereo not drawn) [Example 35, 3-amino-1-(3-(2-ethylbutylamino)phenyl)propan-1-ol]"
10,-1.4 ± 2.78,"CCC(CC)CNc1cccc(C(=O)CCN)c1 [Example 36, 3-Amino-1-(3-(2-ethylbutylamino)phenyl)propan-1-one]"
11,101.6 ± 0.49,"CCCC(CCC)CNc1cccc(C(O)CCN)c1 (stereo not drawn) [Example 37, 3-Amino-1-(3-(2-propylpentylamino)phenyl)propan-1-ol]"
12,69.9 ± 6.85,"NCCC(O)c1cccc(NCC2CCCC2)c1 (stereo not drawn) [Example 39, 3-Amino-1-(3-(cyclopentylmethylamino)phenyl)propan-1-ol]"
13,1.24 ± 9.74,"NCCC(=O)c1cccc(NCC2CCCC2)c1 [Example 40, 3-Amino-1-(3-(cyclopentylmethylamino)phenyl)propan-1-one]"
14,-0.34 ± 6.12,"NCCC(O)c1cccc(NCCCCCOCc2ccccc2)c1 (stereo not drawn) [Example 41, 3-Amino-1-(3-(5-(benzyloxy)pentylamino)phenyl)propan-1-ol]"
15,4.08 ± 4.84,"COc1ccccc1CNc1cccc(C(O)CCN)c1 (stereo not drawn) [Example 47, 3-Amino-1-(3-((2-methoxybenzyl)amino)phenyl)propan-1-ol]"
16,0.21 ± 8.88,"COc1ccccc1CNc1cccc(C(=O)CCN)c1 [Example 48, 3-Amino-1-(3-(2-methoxybenzylamino)phenyl)propan-1-one]"
17,4.54,"NCCC(O)c1cccc(NCCc2ccccc2)c1 (stereo not drawn) [Example 49, 3-Amino-1-(3-(phenethylamino)phenyl)propan-1-ol]"
18,2.01 ± 1.3,"[2H]C([2H])(CN)C(O)c1cccc(NC(=O)C2CCCCC2)c1 (stereo not drawn) [Example 57, N-(3-(3-amino-2,2-dideutero-1-hydroxypropyl)phenyl)cyclohexanecarboxamide]"

row,inhibition in vivo at 1 mg/kg [%],Structure (SMILES)
1,6.94 ± 5.15,"[2H]C([2H])(CN)C(O)c1cccc(NS(=O)(=O)C2CCCCC2)c1 (stereo not drawn) [Example 58, N-(3-(3-amino-2,2-dideutero-1-hydroxypropyl)phenyl)cyclohexanesulfonamide]"
2,4.24 ± 13,"NCCC(O)c1cccc(NCCCc2ccccc2)c1 (stereo not drawn) [Example 59, 3-Amino-1-(3-(3-phenylpropylamino)phenyl)propan-1-ol]"
3,-1.33 ± 5.2,"NCCC(=O)c1cccc(NCCCc2ccccc2)c1 [Example 60, 3-Amino-1-(3-(3-phenylpropylamino)phenyl)propan-1-one]"
4,3.83,"NCCCc1cccc(NCCCc2ccccc2)c1 [Example 64, 3-(3-Aminopropyl)-N-(3-phenylpropyl)aniline]"
5,-1.24 ± 4.43,"CCCC(CCC)C(=O)Nc1cccc(C(O)CCN)c1 (stereo not drawn) [Example 73, N-(3-(3-Amino-1-hydroxypropyl)phenyl)-2-propylpentanamide]"
6,85 ± 3.06,"[2H]C(O)(CCN)c1cccc(NCC2CCCCC2)c1 (stereo not drawn) [Example 81, 3-Amino-1-(3-(cyclohexylmethylamino)phenyl)-1-deuteropropan-1-ol]"
7,75.1 ± 8.03,"[2H]C([2H])(CN)C(O)c1cccc(NCC2CCCCC2)c1 (stereo not drawn) [Example 82, 3-Amino-1-(3-(cyclohexylmethylamino)phenyl)-2,2-dideuteropropan-1-ol]"
8,89.5 ± 2.09,"[2H]C([2H])(N)CC(O)c1cccc(NCC2CCCCC2)c1 (stereo not drawn) [Example 83, 3-Amino-1-(3-(cyclohexylmethylamino)phenyl)-3,3-dideuteropropan-1-ol]"
9,3.17 ± 4.97,"CN(CC1CCCCC1)c1cccc(C(O)CCN)c1 (stereo not drawn) [Example 90, 3-Amino-1-(3-((cyclohexylmethyl)(methyl)amino)phenyl)propan-1-ol]"
10,95.5 ± 1.07,"[2H]C1(CNc2cccc(C(O)CCN)c2)CCCCC1 (stereo not drawn) [Example 91, 3-Amino-1-(3-((1-deuterocyclohexyl)methylamino)phenyl)propan-1-ol]"
11,-0.53 ± 4.53,"[2H]C1([2H])C([2H])([2H])C([2H])([2H])C([2H])(C(=O)Nc2cccc(C(O)CCN)c2)C([2H])([2H])C1([2H])[2H] (stereo not drawn) [Example 93, N-(3-(3-Amino-1-hydroxypropyl)phenyl)-1,2,2,3,3,4,4,5,5,6,6-undecadeuterocyclohexanecarboxamide]"
12,-3.83 ± 5.52,"NCCCc1cccc(NS(=O)(=O)c2ccccc2)c1 [Example 99, N-(3-(3-Aminopropyl)phenyl)benzenesulfonamide]"
13,1.82 ± 10.5,"NCCC(O)c1cccc(NS(=O)(=O)c2ccccc2)c1 (stereo not drawn) [Example 101, N-(3-(3-Amino-1-hydroxypropyl)phenyl)benzenesulfonamide]"
14,-2.77 ± 6.53,"NCCC(=O)c1cccc(NS(=O)(=O)c2ccccc2)c1 [Example 103, N-(3-(3-Aminopropanoyl)phenyl)benzenesulfonamide]"
15,97.9 ± 1.5,"[2H]/C(=C(/[2H])C(O)(CCC)CCC)c1cccc(C(O)CCN)c1 (stereo not drawn) [Example 117, (E)-4-(2-(3-(3-Amino-1-hydroxypropyl)phenyl)-1,2-dideuterovinyl)heptan-4-ol]"
16,27.5 ± 9.6,"[2H]C([2H])(N)CC(O)c1cccc(C#CC2(O)CCCCC2)c1 (stereo not drawn) [Example 121, 1-((3-(3-amino-3,3-dideutero-1-hydroxypropyl)phenyl)ethynyl)cyclohexanol]"
17,84.9 ± 4.5,"[2H]C([2H])(CN)C(O)c1cccc(C#CC2CCCCC2)c1 (stereo not drawn) [Example 122, 3-amino-1-(3-(cyclohexylethynyl)phenyl)-2,2-dideuteropropan-1-ol]"
18,91.4 ± 2.5,"[2H]C([2H])(N)CC(O)c1cccc(C#CC2CCCCC2)c1 (stereo not drawn) [Example 123, 3-amino-1-(3-(cyclohexylethynyl)phenyl)-3,3-dideuteropropan-1-ol]"
